Assay [1] concerns THP-1 cells (TNFα secretion on human IgG-coated plate). Description: TNFα generation assay. It counts as cell-based. The following applies: IFN-γ differentiated THP-1 cells, 7 hours, AlphaLISA, read-out: IC50 of TNFα generation inhibitory activity. Here is the method:
THP-1 cells (2×10^5 cells/ml), which were human monocytoid cells, were cultured in the presence of 10 ng/ml IFN-γ (Roche) for 2 days, and they were induced to differentiate into macrophage-like cells. The differentiation-induced THP-1 cells were recovered, and the cells (1×10^6 cell/ml) were then allowed to react with a predetermined concentration of test compound at room temperature for 30 minutes. On the other hand, 100 μl of human IgG (10 μg/ml, SIGMA-ALDRICH) diluted with PBS was added to a 96-well plate, and it was then incubated at room temperature overnight. Thereafter, the resultant was washed with PBS twice to produce a human IgG-coated plate. A cell fluid that contained a compound was plated on the obtained human IgG-coated plate (5×10^4 cells/well), and it was then cultured for 7 hours. Thereafter, the cultured solution was recovered, and the amount of TNFα secreted into the culture solution was then measured by the AlphaLISA method (PerkinElmer).
In general terms: Alpha assays give light when donor and acceptor beads are brought close together.

Assay [2] addresses T1, glutathione S-transferase (GST)-linked full-length human Syk protein (Homo sapiens, UniProt P43405).
T1 construct: glutathione S-transferase (GST)-linked full-length human Syk protein; purchased Carna Biosciences; host or cells: Baculovirus expression system
Description: Syk enzyme assay. The following applies: 0.83 nM Syk, time-resolved fluorescence; read-out: IC50 of Syk-inhibitory activity. It counts as biochemical. The essentials: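 Phosphotyrosine on a biotin-peptide substrate (0.5 μM) was read by time-resolved fluorescence at 615 and 665 nm with Eu-anti-pTyr antibody and APC-streptavidin after 1 h EDTA stop.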

Where only a bound is given, the exact number is not on record here.

With `CCC[C@@H](Nc1nc(Nc2cnc3c(c2)c(C)nn3C)c(C(N)=O)cc1F)[C@H](C)N` [Example 2-242, 6-(((2S,3R)-2-aminohexan-3-yl)amino)-2-((1,3-dimethyl-1H-pyrazolo[3,4-b]pyridin-5-yl)amino)-5-fluoronicotinamide], the IC50 in assay [1] fell in the range of 130 to 200 nM; in assay [2], 10 to 50 nM.

For the compound `COCCn1ncc2cc(Nc3nc(N[C@H](c4cccc(F)c4)[C@H](C)N)c(F)cc3C(N)=O)ccc21` [Example 2-454, 6-(((1R,2S)-2-amino-1-(3-fluorophenyl)propyl)amino)-5-fluoro-2-((1-(2-methoxyethyl)-1H-indazol-5-yl)amino)nicotinamide], the IC50 in assay [1] was 65 to 130 nM; in assay [2] it was under 10 nM.

As for `COc1nn(C)c2ccc(Nc3nc(N[C@@H](CN)CC(C)C)c(F)cc3C(N)=O)cc12` [Example 2-78, (R)-6-((1-amino-4-methylpentan-2-yl)amino)-5-fluoro-2-((3-methoxy-1-methyl-1H-indazol-5-yl)amino)nicotinamide], the values for the IC50 in assay [1] and in assay [2] were 65 to 130 nM and under 10 nM, respectively.

Consider `Cc1nn(CC(F)F)c2ccc(Nc3nc(N[C@@H](CN)CC(C)C)c(F)cc3C(N)=O)cc12` [Example 2-137], for which the IC50 in assay [1] is 65 to 130 nM; in assay [2], under 10 nM.

As to `C[C@H](N)[C@H](Nc1nc(Nc2ccc3c(cnn3CC(F)F)c2)c(C(N)=O)cc1F)C1CC1` [Example 2-71], the IC50 in assay [1] is under 65 nM; in assay [2], under 10 nM.

With `Cn1nc(F)c2cc(Nc3nc(N[C@@H]4CCOC[C@@H]4N)c(F)cc3C(N)=O)ccc21` [Example 2-209, 6-(((3R,4R)-3-aminotetrahydro-2H-pyran-4-yl)amino)-5-fluoro-2-((3-fluoro-1-methyl-1H-indazol-5-yl)amino)nicotinamide], the figures for the IC50 in assay [1] and in assay [2] were 65 to 130 nM and under 10 nM, respectively.

On to `COc1nn(C)c2c(F)cc(Nc3nc(N[C@@H]4CCOC[C@@H]4N)c(F)cc3C(N)=O)cc12` [Example 2-211, 6-(((3R,4R)-3-aminotetrahydro-2H-pyran-4-yl)amino)-5-fluoro-2-((7-fluoro-3-methoxy-1-methyl-1H-indazol-5-yl)amino)nicotinamide], for which the IC50 is 65 to 130 nM in assay [1] and under 10 nM in assay [2].

Regarding `CCC[C@@H](Nc1nc(Nc2cnc(C)c(F)c2)c(C(N)=O)cc1F)[C@H](C)N` [Example 2-223, 6-(((2S,3R)-2-aminohexan-3-yl)amino)-5-fluoro-2-((5-fluoro-6-methylpyridin-3-yl)amino)nicotinamide], the results for the IC50 in assay [1] and in assay [2] were 130 to 200 nM and under 10 nM, respectively.

In the case of `CC[C@H](N)[C@H](Nc1nc(Nc2cncc(-n3cccn3)c2)c(C(N)=O)cc1F)C1CC1` [Example 2-366, 2-((5-(1H-pyrazol-1-yl)pyridin-3-yl)amino)-6-(((1R,2S)-2-amino-1-cyclopropylbutyl)amino)-5-fluoronicotinamide], the IC50 in assay [1] fell in the range of 130 to 200 nM; in assay [2] it was 10 to 50 nM.

With `Cc1cc(C)cc(Nc2nc(N[C@H](C3CC3)[C@H](C)N)c(F)cc2C(N)=O)c1` [Example 2-45, 6-(((1R,2S)-2-amino-1-cyclopropylpropyl)amino)-2-((3,5-dimethylphenyl)amino)-5-fluoronicotinamide], the IC50 in assay [1] was 130 to 200 nM; in assay [2], under 10 nM.

Consider `C[C@H](N)[C@H](Nc1nc(Nc2cccc(-n3ccnn3)c2)c(C(N)=O)cc1F)C1CC1` [Example 2-480, 2-((3-(1H-1,2,3-triazol-1-yl)phenyl)amino)-6-(((1R,2S)-2-amino-1-cyclopropylpropyl)amino)-5-fluoronicotinamide], for which the IC50 in assay [1] is 65 to 130 nM; in assay [2], under 10 nM.

As for `CC[C@H](N)[C@@H](CC)Nc1nc(Nc2ccnc(OCCOC)c2)c(C(N)=O)cc1F` [Example 2-43, 6-(((3R,4S)-4-aminohexan-3-yl)amino)-5-fluoro-2-((2-(2-methoxyethoxy)pyridin-4-yl)amino)nicotinamide], the values for the IC50 in assay [1] and in assay [2] were 130 to 200 nM and under 10 nM, respectively.

`NC(=O)c1cc(F)c(N[C@@H]2CCCC[C@@H]2N)nc1Nc1ccc(F)cc1` [Example 2-441, 6-(((1R,2S)-2-aminocyclohexyl)amino)-5-fluoro-2-((4-fluorophenyl)amino) nicotinamide]: the IC50 in assay [1] was 130 to 200 nM; in assay [2] it was under 10 nM.

`CCn1ncc2c(Nc3nc(N[C@H](COC)[C@H](C)N)c(F)cc3C(N)=O)cccc21` [Example 2-122, 6-(((2S,3S)-3-amino-1-methoxybutan-2-yl)amino)-2-((1-ethyl-1H-indazol-4-yl)amino)-5-fluoronicotinamide]: the IC50 in assay [1] was 130 to 200 nM; in assay [2] it was 10 to 50 nM.

As to `CCC[C@@H](Nc1nc(Nc2ccc3c(c2)c(C)nn3CCOC)c(C(N)=O)cc1F)[C@H](C)N` [Example 2-132, 6-(((2S,3R)-2-aminohexan-3-yl)amino)-5-fluoro-2-((1-(2-methoxyethyl)-3-methyl-1H-indazol-5-yl)amino)nicotinamide], the figures for the IC50 in assay [1] and in assay [2] were 130 to 200 nM and under 10 nM, respectively.

As to `CNc1ncc(Nc2nc(N[C@H](C3CC3)[C@H](C)N)c(F)cc2C(N)=O)cc1F` [Example 2-274, 6-(((1R,2S)-2-amino-1-cyclopropylpropyl)amino)-5-fluoro-2-((5-fluoro-6-(methylamino)pyridin-3-yl)amino)nicotinamide], the IC50 in assay [1] was 130 to 200 nM; in assay [2], 10 to 50 nM.

In the case of `NC(=O)c1cc(F)c(N[C@@H]2CCCC[C@@H]2N)nc1Nc1cccc(F)c1` [Example 2-440, 6-(((1R,2S)-2-aminocyclohexyl)amino)-5-fluoro-2-((3-fluorophenyl)amino) nicotinamide], the IC50 is 130 to 200 nM in assay [1] and under 10 nM in assay [2].

Turning to `Cc1ncc(Nc2nc(N[C@H](c3ccc(F)cc3)[C@H](C)N)c(F)cc2C(N)=O)cc1-n1nccn1` [Example 2-32, 6-(((1R,2S)-2-amino-1-(4-fluorophenyl)propyl)amino)-5-fluoro-2-((6-methyl-5-(2H-1,2,3-triazol-2-yl)pyridin-3-yl)ammo)nicotinamide], the results for the IC50 in assay [1] and in assay [2] were 130 to 200 nM and under 10 nM, respectively.

`CC(C)C[C@@H](Nc1nc(Nc2ccc3c(c2)c(OC(F)F)nn3C)c(C(N)=O)cc1F)[C@H](C)N` [Example 2-172, 6-(((2S,3R)-2-amino-5-methylhexan-3-yl)amino)-2-((3-(difluoromethoxy)-1-methyl-1H-indazol-5-yl)amino)-5-fluoronicotinamide]: the IC50 in assay [1] was 130 to 200 nM; in assay [2] it was under 10 nM.

On to `CC[C@@H](Nc1nc(Nc2cccc(-n3ccnn3)c2)c(C(N)=O)cc1F)[C@H](C)N` [Example 2-476, 2-((3-(1H-1,2,3-triazol-1-yl)phenyl)amino)-6-(((2S,3R)-2-aminopentan-3-yl)amino)-5-fluoronicotinamide], for which the figures for the IC50 in assay [1] and in assay [2] were 65 to 130 nM and under 10 nM, respectively.

Take `COc1cc(Nc2nc(N[C@H](C)[C@@H](N)C3CC3)c(F)cc2C(N)=O)cc(OC)c1` [Example 2-229, 6-(((1S,2R)-1-amino-1-cyclopropylpropan-2-yl)amino)-2-((3,5-dimethoxyphenyl)amino)-5-fluoronicotinamide]: the IC50 was 130 to 200 nM in assay [1] and 10 to 50 nM in assay [2].

With `CNc1nn(C)c2ccc(Nc3nc(N[C@@H]4CCCC[C@@H]4N)c(F)cc3C(N)=O)cc12` [Example 2-496, 6-(((1R,2S)-2-aminocyclohexyl)amino)-5-fluoro-2-((1-methyl-3-(methylamino)-1H-indazol-5-yl)amino)nicotinamide], the IC50 was 130 to 200 nM in assay [1] and under 10 nM in assay [2].

For `CC[C@@H](Nc1nc(Nc2cccc(C(C)=O)c2)c(C(N)=O)cc1F)[C@H](C)N` [Example 2-478, 2-((3-acetylphenyl)amino)-6-(((2S,3R)-2-aminopentan-3-yl)amino)-5-fluoronicotinamide], the IC50 in assay [1] was 65 to 130 nM; in assay [2] it was under 10 nM.

Take `COc1cc(Nc2nc(N[C@H](c3ccc(F)cc3)[C@H](C)N)c(F)cc2C(N)=O)cc(OC)c1` [Example 2-269, 6-(((1R,2S)-2-amino-1-(4-fluorophenyl)propyl)amino)-2-((3,5-dimethoxyphenyl)amino)-5-fluoronicotinamide]: the IC50 in assay [1] is 65 to 130 nM; in assay [2], under 10 nM.

In the case of `Cc1cccc(Nc2nc(N[C@H](C3CCC3)[C@H](C)N)c(F)cc2C(N)=O)c1` [Example 2-25, 6-(((1R,2S)-2-amino-1-cyclobutylpropyl)amino)-5-fluoro-2-(m-tolylamino)nicotinamide], the IC50 is 130 to 200 nM in assay [1] and under 10 nM in assay [2].

Turning to `COc1nn(C)c2ccc(Nc3nc(N[C@H](C4CCC4)[C@H](C)N)c(F)cc3C(N)=O)cc12` [Example 2-82, 6-(((1R,2S)-2-amino-1-cyclobutylpropyl)amino)-5-fluoro-2-((3-methoxy-1-methyl-1H-indazol-5-yl)amino)nicotinamide], the results for the IC50 in assay [1] and in assay [2] were 130 to 200 nM and under 10 nM, respectively.

`CCn1ncc2cc(Nc3nc(N[C@H](C4CCC4)[C@H](C)N)c(F)cc3C(N)=O)ccc21` [Example 2-9]: the results for the IC50 in assay [1] and in assay [2] were 65 to 130 nM and under 10 nM, respectively.

The values are drawn from US9051310B2, “Nicotinamide derivative or salt thereof” (FUJIFILM Corporation, priority 2011, dated 2015).
